Source: ChEMBL document CHEMBL6182867, “Discovery of ultra short β-peptoids with selective activity against drug-resistant Mycobacterium tuberculosis” (Eur J Med Chem, 2025)

How the values were obtained:
Assay type in all cases: functional
[1] = system: Mycobacterium tuberculosis; experiment: Antitubercular activity against rifampin-resistant Mycobacterium tuberculosis H37Rv by microplate alamar blue assay
[2] = system: Mycobacterium tuberculosis; experiment: Antitubercular activity against isoniazid-resistant Mycobacterium tuberculosis H37Rv by microplate alamar blue assay
[3] = system: Mycobacterium tuberculosis; experiment: Antitubercular activity against Mycobacterium tuberculosis H37Rv harboring LuxABCDE assessed as reduction in luminescence supplemented with fresh medium containing compound on day 2 and 5 by luminescence assay; conditions: 120 h, time 5 day
[4] = system: Mycobacterium tuberculosis; experiment: Synergistic antitubercular activity against Mycobacterium tuberculosis bedaquiline-resistant mutant 7 assessed as bedaquiline MIC=>90 at 0.8 ug/ml by microplate alamar blue assay (Rvb >2 uM); conditions: dose 0.8 µg/ml
[5] = system: Mycobacterium tuberculosis; experiment: Synergistic antitubercular activity against Mycobacterium tuberculosis bedaquiline-resistant mutant H15 assessed as bedaquiline MIC=>90 at 0.8 ug/ml by microplate alamar blue assay (Rvb >2 uM); conditions: dose 0.8 µg/ml
[6] = system: Mycobacterium tuberculosis; experiment: Synergistic antitubercular activity against Mycobacterium tuberculosis bedaquiline-resistant mutant H15 assessed as bedaquiline growth inhibition at 0.8 ug/ml by microplate alamar blue assay (reference value: 75%); conditions: dose 0.8 µg/ml
[7] = system: Mycobacterium tuberculosis; experiment: Synergistic antitubercular activity against Mycobacterium tuberculosis rifampin-resistant mutant assessed as rifampin MIC=>90 at 0.8 ug/ml by microplate alamar blue assay (Rvb >1 uM); conditions: dose 0.8 µg/ml
[8] = system: Mycobacterium tuberculosis; experiment: Synergistic antitubercular activity against Mycobacterium tuberculosis rifampin-resistant mutant assessed as rifampin growth inhibition at 0.8 ug/ml by microplate alamar blue assay (reference value: 46%); conditions: dose 0.8 µg/ml
[9] = system: Mycobacterium tuberculosis; experiment: Synergistic antitubercular activity against Mycobacterium tuberculosis isoniazid-resistant mutant assessed as isoniazid MIC=>90 at 0.8 ug/ml by microplate alamar blue assay (Rvb >8 uM); conditions: dose 0.8 µg/ml
[10] = system: Mycobacterium tuberculosis; experiment: Synergistic antitubercular activity against Mycobacterium tuberculosis isoniazid-resistant mutant assessed as isoniazid growth inhibition at 0.8 ug/ml by microplate alamar blue assay (reference value: 0%); conditions: dose 0.8 µg/ml
[11] = system: Mycobacterium tuberculosis; experiment: Synergistic antitubercular activity against Mycobacterium tuberculosis bedaquiline-resistant mutant 7 assessed as bedaquiline MIC=>90 at 0.4 ug/ml by microplate alamar blue assay (reference value: 0.9 uM); conditions: dose 0.4 µg/ml
[12] = system: Mycobacterium tuberculosis; experiment: Synergistic antitubercular activity against Mycobacterium tuberculosis bedaquiline-resistant mutant H15 assessed as bedaquiline MIC=>90 at 0.4 ug/ml by microplate alamar blue assay (Rvb >2 uM); conditions: dose 0.4 µg/ml
[13] = system: Mycobacterium tuberculosis; experiment: Synergistic antitubercular activity against Mycobacterium tuberculosis bedaquiline-resistant mutant H15 assessed as bedaquiline growth inhibition at 0.4 ug/ml by microplate alamar blue assay (reference value: 75%); conditions: dose 0.4 µg/ml
[14] = system: Mycobacterium tuberculosis; experiment: Synergistic antitubercular activity against Mycobacterium tuberculosis rifampin-resistant mutant assessed as rifampin MIC=>90 at 0.4 ug/ml by microplate alamar blue assay (Rvb >1 uM); conditions: dose 0.4 µg/ml
[15] = system: Mycobacterium tuberculosis; experiment: Synergistic antitubercular activity against Mycobacterium tuberculosis rifampin-resistant mutant assessed as rifampin growth inhibition at 0.4 ug/ml by microplate alamar blue assay (reference value: 46%); conditions: dose 0.4 µg/ml
[16] = system: Mycobacterium tuberculosis; experiment: Synergistic antitubercular activity against Mycobacterium tuberculosis isoniazid-resistant mutant assessed as isoniazid MIC=>90 at 0.4 ug/ml by microplate alamar blue assay (Rvb >8 uM); conditions: dose 0.4 µg/ml
[17] = system: Mycobacterium tuberculosis; experiment: Synergistic antitubercular activity against Mycobacterium tuberculosis isoniazid-resistant mutant assessed as isoniazid growth inhibition at 0.4 ug/ml by microplate alamar blue assay (reference value: 0%); conditions: dose 0.4 µg/ml

## CC(C)N(C(=O)CCNCCC(c1ccccc1)c1ccccc1)C(C)C
[1]
  MIC90: 3.32 mg/L
[2]
  MIC90: 3.01 mg/L
[3]
  EC90: 9.93 mg/L
[4]
  MIC: 0.53 µM
[5]
  MIC: >2 µM
[6]
  growth inhibition (GI): 76%
[7]
  MIC: >1 µM
[8]
  growth inhibition (GI): 60%
[9]
  MIC: >8 µM
[10]
  growth inhibition (GI): 17%

## CC(=O)NC[C@H]1CN(c2ccc(N3CCOCC3)c(F)c2)C(=O)O1 [LINEZOLID]
[1]
  MIC90: 1.14 µM
[2]
  MIC90: 0.94 µM

## NNC(=O)c1ccncc1 [ISONIAZID]
[1]
  MIC90: 0.32 µM
[2]
  MIC90: > 8 µM

## COc1nc2ccc(Br)cc2cc1[C@@H](c1ccccc1)[C@@](O)(CCN(C)C)c1cccc2ccccc12 [BEDAQUILINE]
[3]
  EC90: 0.36 µM

## CO[C@H]1/C=C/O[C@@]2(C)Oc3c(C)c(O)c4c(O)c(c(/C=N/N5CCN(C)CC5)c(O)c4c3C2=O)NC(=O)/C(C)=C\C=C\[C@H](C)[C@H](O)[C@@H](C)[C@@H](O)[C@@H](C)[C@H](OC(C)=O)[C@@H]1C [RIFAMPIN]
[1]
  MIC90: > 1 µM
[2]
  MIC90: 0.03 µM

## CC(C)N(C(=O)CCNCCCC1CCCC1)C(C)C
[1]
  MIC90: 1.78 mg/L
[2]
  MIC90: 1.87 mg/L
[3]
  EC90: 9.67 mg/L
[11]
  MIC: 0.91 µM
[12]
  MIC: >2 µM
[13]
  growth inhibition (GI): 72%
[14]
  MIC: >1 µM
[15]
  growth inhibition (GI): 47%
[16]
  MIC: >8 µM
[17]
  growth inhibition (GI): 0%
